Source: paper PMC11708041, “Structural basis of a microbial trimethylamine transporter” (mBio, 2024)

T1: TmaT (Myroides profundi, UniProt A0A0B5RUB0)
T1 construct: full-length, 529 residues, C-terminal 8xHis tag (pET-22b), expressed in E. coli C43(DE3), DDM-solubilised; homotrimer
T1 sequence (A0A0B5RUB0 1-529): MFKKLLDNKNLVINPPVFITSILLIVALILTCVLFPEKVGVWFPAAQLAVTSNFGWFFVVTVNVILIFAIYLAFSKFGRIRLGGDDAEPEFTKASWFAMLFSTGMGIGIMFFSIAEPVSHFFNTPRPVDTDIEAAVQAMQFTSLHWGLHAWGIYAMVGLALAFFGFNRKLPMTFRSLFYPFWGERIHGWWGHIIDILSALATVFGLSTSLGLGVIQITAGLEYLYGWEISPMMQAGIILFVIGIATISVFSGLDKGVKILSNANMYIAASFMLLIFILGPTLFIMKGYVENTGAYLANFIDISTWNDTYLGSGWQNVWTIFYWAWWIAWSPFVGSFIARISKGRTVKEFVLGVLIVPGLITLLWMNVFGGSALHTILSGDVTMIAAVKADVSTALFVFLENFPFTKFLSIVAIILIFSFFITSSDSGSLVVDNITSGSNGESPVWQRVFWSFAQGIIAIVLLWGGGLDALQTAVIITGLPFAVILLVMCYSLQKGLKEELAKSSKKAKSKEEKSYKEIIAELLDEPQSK


What was measured:
TmaT = target: T1, TmaT; experiment: microscale thermophoresis; assay type: binding
Source text: microscale thermophoresis on TmaT

[1] = target: the molecule itself; experiment: cryo-EM structure; single-particle cryo-EM of purified TmaT (about 8 mg/mL, in DDM); apo TmaT, and with 2 mM or 5 mM TMA; homotrimer

Molecule | Kd (TmaT) [µM] | stoichiometry N [1]
CN(C)C [TMA] | 49 ± 9.4 | –
TmaT, TMA transporter of Myroides profundi D25 (natural protein, UniProt A0A0B5RUB0 1-529, looked up, TmaT, trimethylamine transporter of the betaine-choline-carnitine transporter (BCCT) family, Myroides profundi D25; full-length tmaT, 1,590 nucleotides encoding a 529-amino-acid polypeptide; no removal of the tag is described; Homotrimer in the cryo-EM structures; also called recombinant TmaT; WT TmaT) MFKKLLDNKNLVINPPVFITSILLIVALILTCVLFPEKVGVWFPAAQLAVTSNFGWFFVVTVNVILIFAIYLAFSKFGRIRLGGDDAEPEFTKASWFAMLFSTGMGIGIMFFSIAEPVSHFFNTPRPVDTDIEAAVQAMQFTSLHWGLHAWGIYAMVGLALAFFGFNRKLPMTFRSLFYPFWGERIHGWWGHIIDILSALATVFGLSTSLGLGVIQITAGLEYLYGWEISPMMQAGIILFVIGIATISVFSGLDKGVKILSNANMYIAASFMLLIFILGPTLFIMKGYVENTGAYLANFIDISTWNDTYLGSGWQNVWTIFYWAWWIAWSPFVGSFIARISKGRTVKEFVLGVLIVPGLITLLWMNVFGGSALHTILSGDVTMIAAVKADVSTALFVFLENFPFTKFLSIVAIILIFSFFITSSDSGSLVVDNITSGSNGESPVWQRVFWSFAQGIIAIVLLWGGGLDALQTAVIITGLPFAVILLVMCYSLQKGLKEELAKSSKKAKSKEEKSYKEIIAELLDEPQSK | – | 3
